Experimental data as given in patent US20240166649A1, “DIHYDROPYRIMIDINE COMPOUND, PREPARATION METHOD THEREFOR AND APPLICATION THEREOF” (Shanghai Visonpharma Co., Ltd., priority 2021, published 2024).

test system: HBV (hepatitis B virus) in HepG2.2.15 cells; test: Cell-based anti-viral activity assay (HBV DNA in supernatant by quantitative PCR); details: 120 h, anti-HBV activity, HepG2.2.15 cells, 5 days, read-out: EC50 (HepG2.2.15)
Protocol: Cell-Based Anti-Viral Activity Assay
The Invention determined the anti-HBV (hepatitis B virus) activity of compounds in HepG2.2.15 cells (Table 1).
HepG2.2.15 is a cell line stably transfected with the HBV genome. HepG2.2.15 cells were cultured in DMEM (1X) with 10% fetal bovine serum (Corning), 100 U penicillin (Gibico), 100 μg/mL streptomycin (Gibico), 250 μg/mL geneticin (Gibco) and GlutaMAXTM-I medium (Invitrogen).
HepG2.2.15 cells were seeded into 96-well plates (4×10^4 cells in 100 μL of medium per well) and incubated overnight at 37° C. The test compounds were weighed and prepared as 10 mM stock solution with DMSO. The stock solutions of the compounds were diluted by a gradient of 3.16 times with DMSO, and then diluted by a gradient of 3.16 times with medium for 50 times. Finally, the diluted compound solutions were added to the cell plate with a total volume of 200 μL and the final DMSO concentration was 1%. The 96-well culture plates loaded with drugs were transferred to an incubator at 37° C. for 5 days. […] nucleic acid releasing agent was added to 96-well PCR reaction plate, and 2 μL of cell supernatant or HBV quantitative standards were added to the corresponding Wells. Centrifuged the plates to fully mix, and incubated at room temperature for 10 min to fully release nucleic acid. Quantified HBV DNA content by fluorescent quantitative PCR (CFX Connect Real-Time System) using Sanxiang Bio hepatitis B virus fluorescent quantitative diagnostic kit.
The standard curve was established by taking the logarithm of the copy number (IU/ml) of the HBV standard sample (log 10) as the abscordinate and the corresponding CT value as the ordinate. The copy number of the sample was calculated according to the corresponding CT of the positive sample and the standard curve, and the percentage of inhibition rate was calculated as follows: • % Inhibition=100-100*(sample HBV copy number−high concentration reference compound column HBV copy number)/DMSO column HBV copy number−high concentration reference compound column HBV copy number).

Row | SMILES | EC50
1 | CCOC(=O)C1=C(CN2CCN3C(=O)N(C45CC(N6CCCC6=O)(C4)C5)C[C@@H]3C2)NC(c2nccs2)=N[C@H]1c1cccc(F)c1C [Compound 13, Ethyl (S)-4-(3-Fluoro-2-Methylphenyl)-6-(((S)-3-Oxo-2-(3-(2-Oxopyrrolidin-1-Yl)Bicyclo[1.1.1]Pentan-1-Yl) Hexahydroimidazo[1,5-a]Pyrazin-7(1H)-Yl)Methyl)-2-(Thiazol-2-Yl)-1,4-Dihydropyrimidine-5-Carboxylate] | 8 nM
2 | CCOC(=O)C1=C(CN2CCN3C(=O)N(C45CCC(CC(=O)O)(CC4)C5)C[C@@H]3C2)NC(c2nccs2)=N[C@H]1c1ccc(F)cc1Cl [Compound 65, 2-(4-((S)-7-(((R)-6-(2-Chloro-4-Fluorophenyl)-5-(Ethoxycarbonyl)-2-(Thiazol-2-Yl)-3,6-Dihydropyrimidin-4-Yl)Methyl)-3-Oxohexahydroimidazo[1,5-a]Pyrazin-2(3H)-Yl)Bicyclo[2.2.1]Heptan-1-Yl)Acetic Acid] | 42 nM
3 | CCOC(=O)C1=C(CN2CCN3C(=O)N(C45CC(C(C)C(=O)O)(C4)C5)C[C@@H]3C2)NC(c2nccs2)=N[C@H]1c1cccc(F)c1C (stereo partly drawn) [Compound 30, 2-(3-((S)-7-(((S)-5-(Ethoxycarbonyl)-6-(3-Fluoro-2-Methylphenyl)-2-(Thiazol-2-Yl)-3,6-Dihydropyrimidin-4-Yl)Methyl)-3-Oxohexahydroimidazo[1,5-a]Pyrazin-2(3H)-Yl)Bicyclo[1.1.1]Pentan-1-Yl)Propanoic Acid] | 11 nM
4 | CCOC(=O)C1=C(CN2CCN3C(=O)N(C45CC(CNS(=O)(=O)C6CC6)(C4)C5)C[C@@H]3C2)NC(c2nccs2)=N[C@H]1c1cccc(F)c1C [Compound 23] | 4 nM
5 | CCOC(=O)C1=C(CN2CCN3C(=O)N(C45CC(CS(C)(=O)=O)(C4)C5)C[C@@H]3C2)NC(c2nccs2)=N[C@H]1c1cccc(F)c1C [Compound 8, Ethyl (S)-4-(3-Fluoro-2-Methylphenyl)-6-(((S)-2-(3-((Methylsulfonyl)Methyl)Bicyclo[1.1.1]Pentan-1-Yl)-3-Oxohexahydroimidazo[1,5-a]Pyrazin-7(1H)-Yl)Methyl)-2-(Thiazol-2-Yl)-1,4-Dihydropyrimidine-5-Carboxylate] | 4 nM
6 | CCOC(=O)C1=C(CN2CCN3C(=O)N(C45CC(CC(C)(C)C(=O)O)(C4)C5)C[C@@H]3C2)NC(c2nccs2)=N[C@H]1c1cccc(F)c1C [Compound 4] | 8 nM
7 | COC(=O)C1=C(CN2CCN3C(=O)N(C45CC(CC(=O)O)(C4)C5)C[C@@H]3C2)NC(c2nccs2)=N[C@H]1c1ccc(F)cc1Br [Compound 39, 2-(3-((S)-7-(((R)-6-(2-Bromo-4-Fluorophenyl)-5-(Methoxycarbonyl)-2-(Thiazol-2-Yl)-3,6-Dihydropyrimidin-4-Yl)Methyl)-3-Oxohexahydroimidazo[1,5-a]Pyrazin-2 (3H)-Yl)Bicyclo[1.1.1]Pentane-1-Yl)Acetic Acid] | 32 nM
8 | CCOC(=O)C1=C(CN2CCN3C(=O)N(C45CCC(C(=O)O)(CC4)CC5)C[C@@H]3C2)NC(c2nccs2)=N[C@H]1c1ccc(F)c(F)c1C [Compound 54] | 3 nM
9 | CCOC(=O)C1=C(CN2CCN3C(=O)N(C45CC(CC(=O)O)(C4)C5)C[C@@H]3C2)NC(c2nccs2)=N[C@H]1c1ccc(F)c(F)c1 [Compound 36] | 48 nM

same assay, conditions: HepG2.2.15, 120 h, read-out: EC50 (HepG2.2.15, nM)

Row | SMILES | EC50
10 | CCOC(=O)C1=C(CN2CCN3C(=O)N(C45CC(CP(=O)(OCC)OCC)(C4)C5)C[C@@H]3C2)NC(c2nccs2)=N[C@H]1c1cccc(F)c1C [Compound 16, Ethyl (S)-6-(((S)-2-(3-((Diethoxyphosphoryl)Methyl)Bicyclo[1.1.1]Pentan-1-Yl)-3-Oxohexahydroimidazo[1,5-a]Pyrazin-7(1H)-Yl)Methyl)-4-(3-Fluoro-2-Methylphenyl)-2-(Thiazol-2-Yl)-1,4-Dihydropyrimidine-5-Carboxylate] | 9 nM
